Reference: patent publication US10017516B2, “BMP inhibitors and methods of use thereof” (The Brigham and Women's Hospital, Inc., priority 2013, dated 2018)
pIC50: −log10 of the molar value.

Assays:
human ALK2 = human ALK2 (Homo sapiens (Human), UniProt Q04771); assay: LANCE Ultra ULight enzymatic assay, ALK2; assay type: biochemical; conditions: 10 μM ATP
[1] = In vitro metabolism in mouse and human liver microsomes and cytosols; assay type: in vitro ADME; conditions: for major metabolism in the presence of liver cytosol (aldehyde oxidase-mediated oxidation): 10 μM, 60 min, mouse and human; for glucuronide conjugates: with UDPGA
[2] = In vitro metabolism in human liver microsomes and cytosols; assay type: in vitro ADME

human ALK2, sequence (Q04771 21-509): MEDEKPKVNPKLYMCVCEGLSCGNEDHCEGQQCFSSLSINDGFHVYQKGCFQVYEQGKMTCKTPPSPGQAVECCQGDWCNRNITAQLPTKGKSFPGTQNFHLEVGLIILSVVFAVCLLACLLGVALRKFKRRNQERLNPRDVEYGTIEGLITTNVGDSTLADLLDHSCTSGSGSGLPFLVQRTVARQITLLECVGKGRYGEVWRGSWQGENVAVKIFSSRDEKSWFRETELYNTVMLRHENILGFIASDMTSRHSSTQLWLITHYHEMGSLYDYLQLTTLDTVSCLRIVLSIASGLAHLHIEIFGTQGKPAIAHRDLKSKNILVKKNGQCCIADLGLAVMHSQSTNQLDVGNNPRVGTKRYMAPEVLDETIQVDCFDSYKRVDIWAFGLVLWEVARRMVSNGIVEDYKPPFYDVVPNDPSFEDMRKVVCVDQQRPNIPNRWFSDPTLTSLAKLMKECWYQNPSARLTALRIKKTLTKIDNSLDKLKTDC

Cc1ccc2c(-c3cnn4cc(-c5ccc(OCCN6CCCCC6)cn5)cnc34)cccc2n1 [Compound 48′, 2-methyl-5-(6-(5-(2-(piperidin-1-yl)ethoxy)pyridin-2-yl)pyrazolo[1,5-a]pyrimidin-3-yl)quinoline]
pIC50 (human ALK2): 7.07

C[C@@H]1CNC[C@H](C)N1c1ccc(-c2cnc3c(-c4ccnc5ccccc45)cnn3c2)cc1 [compound 2, 4-(6-(4-((2R,6S)-2,6-dimethylpiperazin-1-yl)phenyl)pyrazolo[1,5-a]pyrimidin-3-yl)quinoline]
major metabolism in the presence of liver cytosol (aldehyde oxidase-mediated oxidation) [1]: oxidation of the alpha-carbon of quinoline nitrogen, leading to M450c
glucuronide conjugates [1]: not observed

c1ccc2c(-c3cnn4cc(-c5ccc(C6CCNCC6)cc5)cnc34)ccnc2c1 [Compound 48]
major metabolism in the presence of liver cytosol (aldehyde oxidase-mediated oxidation) [1]: metabolized mainly through the oxidation of the quinoline ring
GSH trapping of soft electrophiles ([1]; GSH 2 mM): not observed
cyanide adducts (reactive intermediate trapping with KCN) ([1]; KCN 0.1 mM): not observed
glucuronide conjugates [1]: not observed

Cc1cc(-c2cnn3cc(-c4ccc(N5CCNCC5)nc4)cnc23)c2ccccc2n1 [compound 12, 2-methyl-4-(6-(6-(piperazin-1-yl)pyridin-3-yl)pyrazolo[1,5-a]pyrimidin-3-yl)quinoline]
oxidative metabolites in incubation without NADPH (AO mediated metabolism) ([2]; 10 μM, 1 hr, HLM + human cytosol): Oxidative metabolites were not observed
cyanide adduct (KCN trapping) ([2]; KCN 1 mM): A major cyanide adduct was observed
glucuronide conjugates ([2]; UDPGA 4 mM): Glucuronide conjugates were not observed
aniline metabolites ([2]; human liver microsomal preparations): An aniline derivative was observed
